Reference: patent US20160002297A1, “THERAPEUTIC AGENTS” (NATIONAL UNIVERSITY OF SINGAPORE, priority 2013, published 2016)
Positions of bridges follow the written chain, without caps; N, C: chain ends. Residues, ends and D or L forms follow the SMILES beside them.

Key:
B16F10 melanoma = assay: Mouse tumorigenesis: subcutaneous B16F10 melanoma, intravenous treatment from day 0; format: in vivo
Description: FIG. 4 Recombinant ISM and ISM derived cRKD peptide inhibit B16F10 tumour growth in vivo. A. Tumour growth curve in mice. X-axis represents the days after 5×10^5 tumour cell inoculation. Groups consisted of control mice receiving no treatment, recombinant ISM, cRKD peptide and its control-cyclic RAA peptide, given in six doses of 250 μg/mouse through tail vein injection on days 0, 2, 4, 6, 8, and 10 (5 mice in each group, each mice with one tumour). **: p<0.01,*: p<0.05, n=5. B. Tumour weight at the end of the experiment (14 days after tumour cell inoculation). C. Recombinant ISM and cRKD peptide inhibits B16F10 tumour growth. […] Paraffin sections of tumors from mice groups treated by control, ISM, cRAA and cRKD peptides were probed for microvessel density, tumor cell proliferation and apoptosis through immunofluoresence staining using anti-CD31 (A), anti-PCNA (B) and TUNEL staining (C) respectively. Representative photos are shown. (D) Quantification of microvessel density. Microvessel density is the number of microvessels per microscopic field. (E) Quantification of cell proliferation in tumor sample. Cell proliferation is presented as the percentage of PCNA positive cells out of the total number of cells (DAPI positive cells) in the microscopic field. (F) Quantification of apoptosis in tumor. Apoptosis is quantified as the percentage of TUNEL positive cells out of the total number of cells (DAPI positive cells) in the microscopic field. Plots represent the mean of 3 fields per section, 3 sections per tumor and 2 tumors per group (±SEM). ** P≦0.01, * P≦0.05; Adult 8-week-old female C57BL/6J mice were used in this study. Animal care and experimentation was carried out under the institutional guidelines issued by the local institutional animal care and use committee (IACUC; protocol 066/12). 5×10^5 B16F10 cells in 0.1 ml PBS were injected subcutaneously into the dorsal left flank of the mouse. Twenty mice were assigned into 4 different groups consisted of control mice receiving no treatment, recombinant ISM, cyclic RKD peptide and its peptide control-cyclic RAA peptide, given in six doses of 250 μg through tail vein injection on days 0, 2, 4, 6, 8, and 10 (5 mice in each group, each mice with one tumor). Health status of the mice was monitored over two weeks and visible tumor size were measured daily by calipers after 8 days until the end point (day 14). Tumor volume was calculated using the following formula: 0.52×length×(width)^2 mm^3, where the largest dimension of the tumor is considered as the length and the width is the perpendicular dimension. On day 14, mice were sacrificed, and their dorsal flank was opened and photographed to exam the vascularization. Then tumors were excised and weighed followed by either fixing in 4% paraformaldehyde for sectioning or snap-freezing in liquid nitrogen for further analysis. Paraffin-embedded tissue sections of 5 μm were deparaffinized by heating at 60° C. for 7 minutes before deparaffinizing in histoclear followed by the rehydration in graded series of alcohol (100%, 90%, 80%, and 70% ethanol in ddH2O) and finally in PBS for 5 minutes. Antigen retrieval was done in a bench-top 2100-Retriever according to the protocol of the manufacturer (Electron Microscopy Sciences, Hatfield, Pa.). The sections were blocked with 3% bovine serum albumin (BSA) in a humidified chamber for 1 hour at room temperature followed by overnight incubation with the anti-CD31 (Santa Cruz Biotechnology, Santa Cruz, Calif.), anti-PCNA antibody (Santa Cruz Biotechnology), anti-GRP78 antibody (Santa Cruz Biotechnology), or anti-His tag antibody (Santa Cruz Biotechnology) at 4° C. The following day, unbound antibody was washed with 1×PBS containing 0.1% Tween-20 (1×PBST) and incubated with the corresponding Alexafluor 568 secondary antibodies (Life Technologies) for 1.5 hours at 37° C. Sections were rinsed again and incubated for 10 minutes with DAPI at 1 μg/mL to visualize the DNA in the cell nucleus. […]

HUVECs = assay: Tube formation assay on Matrigel; format: cell-based, human
Description: HUVECs (1×10^4) were pre-treated with peptides of various concentrations for 30 min before being plated onto the polymerized Matrigel (Millipore, USA) in 15-well μ-slide (Ibidi, Germany). After 4-6 h, capillary network was documented using Zeiss Axiovert200 inverted microscope (Maple Grove, Minn., USA). Tube length was quantified by measuring the length of branches in representative fields using ImageJ software. Plots represented the mean of 3 wells of tubular length in 15-well μ-slide (t SEM).

N=C(N)NCCC[C@@H]1NC(=O)[C@@H](N)CSSC[C@@H](C(=O)O)NC(=O)[C@H](CC(=O)O)NC(=O)[C@H](CCCCN)NC1=O [cRKD, Cyclic CRKDC peptide] (H-CRKDC-OH; disulfide 1-5; N-terminus and C-terminus assumed)
tumor growth (B16F10 melanoma; 250 μg/mouse intravenous every 2 days, days 0-10, subcutaneous B16F10): significantly suppressed tumor growth
vascularization (blood vessels supplying the tumor) (B16F10 melanoma; 250 μg/mouse intravenous, day 14): obviously reduced
tumor angiogenesis, tumor cell proliferation and tumor cell apoptosis (B16F10 melanoma; immunofluorescence of tumor sections): suppress tumor angiogenesis, tumor cell proliferation and induce tumor cell apoptosis
suppression of subcutaneous mouse melanoma growth (B16F10 melanoma; intravenous injection): 75%
increase of apoptosis in the tumor tissue (TUNEL) (B16F10 melanoma; quantitation of tumor sections): more than 3 fold
suppression of tumor angiogenesis (tumor vessel density) (B16F10 melanoma; quantitation of tumor sections): more than 3 fold
suppression of tumor cell proliferation (PCNA) (B16F10 melanoma; quantitation of tumor sections): more than 2 fold
apoptosis of tumor cells and tumor ECs (CD31/TUNEL double staining) (B16F10 melanoma; tumor sections, compared to controls): both tumor cells as well as tumor ECs became apoptotic
tumor vessel density (anti-CD31 immunofluorescence) (B16F10 melanoma; tumor tissue sections): obvious reduction of tumor vessel density
anti-angiogenic activity at 1 μM (HUVECs; 1 μM peptide): inhibited angiogenesis with similar potency
inhibition of EC tube-like structure formation on Matrigel (HUVECs; dose-dependence): does-dependently inhibited EC tube-like structure formation
